Test results reported in patent US20200172483A1, “HETEROCYCLIC SMALL MOLECULE MODULATORS OF HUMAN STING” (Curadev Pharma Limited, priority 2017, published 2020).
Where two headings read alike, the source gives them in different places.

Key:
hSTING (H232) = biological target: T1, hSTING (H232) (Homo sapiens, UniProt Q86WV6); assay: Luciferase reporter assay in HEK293T-hSTING-Luciferase cells (H232/REF polymorph); format: cell-based; conditions: EC50 range
T1 construct: host or cells: HEK293T
How it was run: (§1)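 Clonal HEK293T lines stably expressing the hSTING variant (H232 or HAQ) plus an ISRE/ISG54-driven secreted luciferase reporter were stimulated with compounds for 20 hr. Supernatant luciferase measured by luminescence (Quanti-Luc).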

IRF pathway = assay: Reporter gene expression assay for IRF axis in THP1-Dual cells (secreted Lucia luciferase); format: cell-based, human; conditions: 20 hr stimulation, QUANTI-Luc, EC50 range, read-out: THP-IRF activity
How it was run: (§2)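 THP1-Dual cells (THP-1 monocytes with inducible NF-κB-SEAP and IRF-Lucia reporters; 5×10^5 cells) were stimulated with compounds for 20 hr. Secreted SEAP (QUANTI-Blue) and Lucia luciferase (QUANTI-Luc) were then measured in the supernatant. EC50 values are reported as ranges.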

NF-κB pathway = assay: Reporter gene expression assay for NFκB axis in THP1-Dual cells (secreted SEAP); format: cell-based, human; conditions: 20 hr stimulation, QUANTI-Blue SEAP, EC50 range, read-out: THP-NFKB activity
How it was run: as §2

WT/R232 STING protein = biological target: T2, WT/R232 STING protein (Homo sapiens, UniProt Q86WV6, H232R); assay: Luciferase reporter assay in HEK293T-hSTING-Luciferase cells (R232); format: cell-based; conditions: 20 hr stimulation, EC50 range
T2 construct: host or cells: HEK293T
How it was run: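 Clonal HEK293T cells stably expressing human STING R232 plus an ISRE/ISG54-driven secreted luciferase reporter, stimulated with compounds for 20 hr. Luciferase in supernatant read by luminescence; activity given as fold-induction over baseline.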

hSTING (HAQ) = biological target: T3, hSTING (HAQ) (Homo sapiens, UniProt Q86WV6, G230A/H232R/R293Q/R71H); assay: Luciferase reporter assay in HEK293T-hSTING-Luciferase cells (HAQ polymorph); format: cell-based; conditions: EC50 range
T3 construct: host or cells: HEK293T
How it was run: as §1

T2 sequence (Q86WV6 whole entry H232R): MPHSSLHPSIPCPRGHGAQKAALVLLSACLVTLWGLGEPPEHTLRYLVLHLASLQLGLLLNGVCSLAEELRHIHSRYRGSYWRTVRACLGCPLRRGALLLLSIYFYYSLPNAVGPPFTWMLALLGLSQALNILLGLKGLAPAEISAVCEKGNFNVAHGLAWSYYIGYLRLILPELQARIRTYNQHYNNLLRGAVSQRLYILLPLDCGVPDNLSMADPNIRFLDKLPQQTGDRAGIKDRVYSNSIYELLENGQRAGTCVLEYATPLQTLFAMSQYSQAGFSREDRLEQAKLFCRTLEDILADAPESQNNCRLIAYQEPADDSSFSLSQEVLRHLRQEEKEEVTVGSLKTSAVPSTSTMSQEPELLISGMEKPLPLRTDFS
T3 sequence (Q86WV6 whole entry R71H/G230A/H232R/R293Q): as the sequence (Q86WV6 whole entry H232R) above, with R71H, G230A, R293Q counted along it
T1 sequence (Q86WV6 whole entry): as the sequence (Q86WV6 whole entry H232R) above, with R232H counted along it

SMILES	EC50 (hSTING (H232))	EC50 (IRF pathway; Homo sapiens, THP1-Dual, 20 h)	EC50 (NF-κB pathway; Homo sapiens, THP1-Dual, 20 h)	EC50 (WT/R232 STING protein)	EC50 (hSTING (HAQ))	EC50 (NF-κB pathway)	EC50 (IRF pathway)
CC1(C)C(=O)N(Cc2ccccc2)c2cc(C(=O)NCc3c(F)cc(F)cc3F)ccc21 [Example 11, 1-benzyl-3,3-dimethyl-2-oxo-N-(2,4,6-trifluorobenzyl)indoline-6-carboxamide]	1 to 10 µM	> 10 µM	1 to 10 µM	≤ 1 µM	1 to 10 µM	–	–
CC1(C)C(=O)N(Cc2cc(F)cc(F)c2)c2cc(C(=O)NCc3c(F)cc(F)cc3F)ccc21 [Example 5, 1-(3,5-difluorobenzyl)-3,3-dimethyl-2-oxo-N-(2,4,6-trifluorobenzyl)indoline-6-carboxamide]	≤ 1 µM	1 to 10 µM	1 to 10 µM	≤ 1 µM	≤ 1 µM	–	–
Cc1nn(C)c(CN2C(=O)C(C)(C)c3ccc(C(=O)NCc4c(F)cc(F)cc4F)cc32)c1Br [Example 106, 1-((4-bromo-1,3-dimethyl-1H-pyrazol-5-yl)methyl)-3,3-dimethyl-2-oxo-N-(2,4,6-trifluorobenzyl)indoline-6-carboxamide]	≤ 1 µM	1 to 10 µM	1 to 10 µM	≤ 1 µM	≤ 1 µM	–	–
CC1(C)C(=O)N(Cc2cccc(C(N)=O)c2)c2cc(C(=O)NCc3c(F)cc(F)cc3F)ccc21 [Example 37, 1-(3-carbamoylbenzyl)-3,3-dimethyl-2-oxo-N-(2,4,6-trifluorobenzyl)indoline-6-carboxamide]	1 to 10 µM	> 10 µM	> 10 µM	1 to 10 µM	> 10 µM	–	–
Cc1cc(CN2C(=O)C(C)(C)c3ccc(C(=O)NCc4c(F)cc(F)cc4F)cc32)n(C)n1 [Example 82, 1-((1,3-dimethyl-1H-pyrazol-5-yl)methyl)-3,3-dimethyl-2-oxo-N-(2,4,6-trifluorobenzyl)indoline-6-carboxamide]	1 to 10 µM	1 to 10 µM	1 to 10 µM	≤ 1 µM	1 to 10 µM	–	–
Cc1ccc(CNC(=O)c2ccc3c(c2)N(Cc2cccc(F)c2F)C(=O)C3(C)C)o1 [Example 61, 1-(2,3-difluorobenzyl)-3,3-dimethyl-N-((5-methylfuran-2-yl)methyl)-2-oxoindoline-6-carboxamide]	1 to 10 µM	> 10 µM	> 10 µM	1 to 10 µM	1 to 10 µM	–	–
CC1(C)C(=O)N(Cc2cccc(Cl)c2)c2cc(C(=O)NCc3c(F)cc(F)cc3F)ccc21 [Example 19, 1-(3-chlorobenzyl)-3,3-dimethyl-2-oxo-N-(2,4,6-trifluorobenzyl)indoline-6-carboxamide]	1 to 10 µM	> 10 µM	1 to 10 µM	≤ 1 µM	1 to 10 µM	–	–
CC1(C)C(=O)N(Cc2ccc(N=[N+]=[N-])cc2)c2cc(C(=O)NCc3c(F)cc(F)cc3F)ccc21 [Example 56, 1-(4-azidobenzyl)-3,3-dimethyl-2-oxo-N-(2,4,6-trifluorobenzyl)indoline-6-carboxamide]	1 to 10 µM	> 10 µM	> 10 µM	≤ 1 µM	1 to 10 µM	–	–

Second part, the molecule after the results:

EC50 (hSTING (H232))	EC50 (IRF pathway; Homo sapiens, THP1-Dual, 20 h)	EC50 (NF-κB pathway; Homo sapiens, THP1-Dual, 20 h)	EC50 (WT/R232 STING protein)	EC50 (hSTING (HAQ))	EC50 (NF-κB pathway)	EC50 (IRF pathway)	SMILES
≤ 1 µM	1 to 10 µM	1 to 10 µM	≤ 1 µM	≤ 1 µM	–	–	CC1(C)C(=O)N(Cc2c(F)cccc2F)c2cc(C(=O)NCc3c(F)cc(F)cc3F)ccc21 [Example 109, 1-(2,6-difluorobenzyl)-3,3-dimethyl-2-oxo-N-(2,4,6-trifluorobenzyl)indoline-6-carboxamide]
> 10 µM	> 10 µM	> 10 µM	1 to 10 µM	1 to 10 µM	–	–	CC1(C)CN(C(=O)Cc2ccccc2)c2cc(C(=O)NCc3c(F)cc(F)cc3F)ccc21 [Example 136, 3,3-dimethyl-1-(2-phenylacetyl)-N-(2,4,6-trifluorobenzyl)indoline-6-carboxamide]
1 to 10 µM	> 10 µM	1 to 10 µM	≤ 1 µM	1 to 10 µM	–	–	CC1(Cl)C(=O)N(Cc2c(F)cccc2Cl)c2cc(C(=O)NCc3c(F)cc(F)cc3F)ccc21 (stereo not shown) [Example 146, 3-chloro-1(2-chloro-6-fluorobenzyl)-3-methyl-2-oxo-N-(2,4,6-trifluorobenzyl)indoline-6-carboxamide]
1 to 10 µM	> 10 µM	> 10 µM	1 to 10 µM	1 to 10 µM	–	–	CCC1(OC)C(=O)N(Cc2c(F)cccc2Cl)c2cc(C(=O)NCc3c(F)cc(F)cc3F)ccc21 (stereo not shown) [Example 161, 1-(2-chloro-6-fluorobenzyl)-3-ethyl-3-methoxy-2-oxo-N-(2,4,6-trifluorobenzyl)indoline-6-carboxamide]
1 to 10 µM	> 10 µM	1 to 10 µM	≤ 1 µM	1 to 10 µM	–	–	CC1(N=[N+]=[N-])C(=O)N(Cc2c(F)cccc2Cl)c2cc(C(=O)NCc3c(F)cc(F)cc3F)ccc21 (stereo not shown) [Example 153, 3-azido-1(2-chloro-6-fluorobenzyl)-3-methyl-2-oxo-N-(2,4,6-trifluorobenzyl)indoline-6-carboxamide]
1 to 10 µM	> 10 µM	> 10 µM	≤ 1 µM	1 to 10 µM	–	–	CC1(C)C(=O)N(Cc2ccccc2C#N)c2cc(C(=O)NCc3c(F)cc(F)cc3F)ccc21 [Example 124, 1-(2-cyanobenzyl)-3,3-dimethyl-2-oxo-N-(2,4,6-trifluorobenzyl)indoline-6-carboxamide]
≤ 1 µM	> 10 µM	–	≤ 1 µM	1 to 10 µM	> 10 µM	–	CC1(C#N)C(=O)N(Cc2c(F)cccc2Cl)c2cc(C(=O)NCc3c(F)cc(F)cc3F)ccc21 (stereo not shown) [Example 164, 1-(2-chloro-6-fluorobenzyl)-3-cyano-3-methyl-2-oxo-N-(2,4,6-trifluorobenzyl)indoline-6-carboxamide]
1 to 10 µM	> 10 µM	> 10 µM	≤ 1 µM	1 to 10 µM	–	–	COCCn1nc(C)c(F)c1CN1C(=O)C(C)(C)c2ccc(C(=O)NCc3cc4cc(F)ccc4o3)cc21 [Example 118, 1-((4-fluoro-1-(2-methoxyethyl)-3-methyl-1H-pyrazol-5-yl)methyl)-N-((5-fluorobenzofuran-2-yl)methyl)-3,3-dimethyl-2-oxoindoline-6-carboxamide]
≤ 1 µM	–	–	≤ 1 µM	≤ 1 µM	1 to 10 µM	> 10 µM	CC1(C#N)C(=O)N(Cc2c(F)cccc2Cl)c2cc(C(=O)NCc3c(F)cc(F)cc3F)ccc21 (stereo not shown) [Example 165, 1-(2-chloro-6-fluorobenzyl)-3-cyano-3-methyl-2-oxo-N-(2,4,6-trifluorobenzyl)indoline-6-carboxamide]
